Columns and labels:
[1] = Visual observation of wettability by stereomicroscope; type: physicochemical; conditions: one drop of distillate water on 0.1 mg powder
Experimental: Wettability of nanostructured Sildenafil Citrate particles was investigated in distilled water and was visualized by stereomicroscope equipped with CCD camera. 0.1 mg reference and nanostructure Sildenafil powder was placed to the slide and then one drop of distillate water was added to the powder.

[2] = Particle size concluded from X-ray diffractograms; type: physicochemical; conditions: XRD
From the text: The wide reflection between 15 and 20 20 values indicates the amorphous structure of the Carbopol 971. The characteristic reflections of the crystalline Sildenafil citrate can be found on the XRD diffractogram of nanosized Sildenafil citrate, but with lower intensity.

[3] = cited from earlier work

## CCCc1nn(C)c2c(=O)[nH]c(-c3cc(S(=O)(=O)N4CCN(C)CC4)ccc3OCC)nc12.O=C(O)CC(O)(CC(=O)O)C(=O)O [Sildenafil citrate, 1-[[3-(6,7-dihydro-1-methyl-7-oxo-3-propyl-1H-pyrazolo[4,3-d]pyrimidin-5-yl)-4-ethoxyphenyl]sulfonyl]-4-methylpiperazine citrate]
[1]
  wettability: stayed in their aggregated state
[2]
  particle size from diffractograms: 1-2 μm
[3]; oral
  absolute bioavailability: 41%
[3]; single doses from 1.25 to 200 mg
  dose dependence of AUC and cmax: dose-proportional

— patent US20120128740A1, “NANOSTRUCTURED […] BASE, ITS PHARMACEUTICALLY ACCEPTABLE SALTS AND CO-CRYSTALS, COMPOSITIONS OF THEM, PROCESS FOR THE PREPARATION THEREOF AND PHARMACEUTICAL COMPOSITIONS CONTAINING THEM” (priority 2009, published 2012)
